In patent publication US4395404A, “Synthetic thymosin β3 and β4 analogues” (George Washington University, priority 1982, dated 1983):
Where no end group is shown, it is not given here.

What was measured:
[1] = test system: Peritoneal exudate cells (PEC) from guinea pig; assay: Macrophage Migration Inhibitory Factor (MIF) assay, nonspecific inhibition of macrophage migration; format: cell-based, Hartley strain guinea pigs; details: less than 20% considered insignificant
Description: The standardized Macrophage Migration Inhibitory Factor (MIF) assay for natural thymosin β4, synthetic thymosin β4, compounds of formula XVI, (designated C12 β3), formula VI (designated C8 β4), formula IV (designated C10 β4), and formula VIII (designated C6 β4) was performed following the method of Thurman, et al., Lymphokines and Thymic Hormones: Their Potential Utilization in Cancer Therapeutics, ed. by Goldstein and Chirigos, Raven Press, New York, pp 145-157 (1981). Peritoneal exudate cells (PEC) from guinea pig were prepared in Hartley strain guinea pigs by injecting 20-30 ml of sterile mineral oil 3-5 days prior to the assay. On the day of the assay, the guinea pigs were anesthetized and injected i.p. with 50 ml of RPMI-1640. Following abdominal massage, the peritoneum was opened with a one inch incision in the umbilical region and the peritoneal fluids withdrawn. The peritoneal fluids were centrifuged at 200×g for 10 min and the pelleted cells resuspended in a small volume of RPMI for transfer to clean tubes. Following three more washes, the cells were resuspended, counted and adjusted to 45×10^6/ml for use. In some experiments mouse PEC were used in place of guinea pig PEC. The mouse PEC were induced in BALB/c normal or nude mice by injecting 1 ml of mineral oil i.p. 3 days prior obtaining the cells by washing the peritoneum with 5 ml of RPMI 1640. In some experiments macrophage-like cell lines, WEHI-3 and FC-1, were used in place of PEC. The WEHI-3 cells migrate and have been reported to respond to migration inhibitory factor (MIF). Likewise, the FC-1 cells are also migratory and respond to MIF. […] The percent nonspecific inhibition (PNSI) was calculated as: [formula] […] Percent nonspecific inhibition of migration of less than 20% was also considered insignificant. The date from these experiments are compiled in Table 3.

[2] = test system: TdT activity in thymocytes; assay: In vivo effect on TdT activity in thymocytes of hydrocortisone acetate (HCA) treated mice; parameters: species or system C57B1/6J mice; details: for TdT Specific Activity: daily for 11 days after 1.25 mg HCA at day 0, HCA-saline 6.4, normal 8.9; for TdT % Increase over HCA-saline: daily for 11 days after HCA
Description: The in vivo effect of thymosin fractions, i.e. thymosin β3 (designated HCA-thymosin β3), thymosin β4 (designated HCA-thymosin β4), thymosin fraction 5 (designated HCA-thymosin fr 5), compound of formula VI (designated HCA-synthetic C8 β4) and compound of formula XVI (designated HCA-synthetic C12 β3, on TdT activity in thymocytes of hydrocortisone acetate (HCA) treated C57B1/6J mice was assayed and determined according to the method of Hu, et al., 38, 1079 (1979).
For TdT activity determination [(following the Hu et al method (supra)], a 1.25 mg HCA injection per animal was carried out at day zero (0). Each injection was followed by daily treatment of the animal with the thymosin fractions (supra) or controls, i.e. no HCA and HCA-saline, for eleven (11) consecutive days. The increase in TdT specific activity (nmoles of dGTP incorporated per 10^8 thymocytes per hour) over that of HCA-saline treated animals was determined, the data compiled in columns 1-4 of Table 2.

Splenic lymphocytes = assay: In vivo restoration of splenic mitogenic responses in HCA suppressed mice (tritiated thymidine incorporation); parameters: species or system C57B1/6J mice; details: for Mitogens PHA-P (cpm): HCA-saline 12,000, normal 30,000; for Mitogens Con A (cpm): HCA-saline 86,000, normal 210,000
Description: The in vivo effect of thymosin fractions (supra) on restoration of splenic mitogenic responses in HCA suppressed C57B1/6J mice was assayed and determined by the following method.
Splenic lymphocytes were removed sterilly, placed in plastic petri dishes containing RPMI 1640 (with 25 mM HEPES buffer, 100 μ/ml penicillin, 100 μg/ml streptomycin and 2mM L-glutamine) and a 64-mesh stainless steel wire screen. Single cell suspensions were obtained by further passage through a 25 GA needle. The cells were washed twice, counted using a Coulter Counter Model A and suspended to give a concentration of 6×10^6 leukocytes/ml. Cultures were prepared in flat bottom 96 well microtiter plates by placing 0.10 ml of the cell suspension into each well plus 0.05 ml 20% heat inactivated fetal calf serum (FCS) (resulting in 6×10^5 cells/well in 5% FCS final). Control cultures received 0.05 ml of RPMI 1640, and the stimulated cultures received 0.025 ml of RPMI 1640 containing various concentrations of thymosin and 0.025 ml of various concentrations of PHA-P (Difco, Detroit, Michigan), Con-A (Calbiochem, Oxnard, California), PWM (GIBCO, Grand Island, New York) or E. coli LPS (Difco, Detroit, Michigan) all made up in RPMI 1640. Cultures were pulsed by adding 1 uCi tritiated thymidine, 1.9 Ci/mM (Schwartz/Mann,Orangeburg, New Jersey), in 0.02 ml of RPMI 1640 8 hours before culture termination. Cultures were harvested utilizing a Multiple-Automated Sample Harvester (Microbiological Associates, Bethesda, Maryland). The resulting filter spots were dried and placed in glass liquid scintillation mini-vials to which was added 1 ml of scintillation cocktail. The vials were stoppered and the tritiated thymidine incorporation analyzed by scintillation spectrophotometry on an LKB liquid scintillation counter to provide Con A (cpm) and PHA-P (cpm). Processing of the data and necessary statistical tests were performed on a Wang 700 C Advanced Programming Calculator (Wang Labs, Tewksbury, Massachusetts) and are compiled in columns 1-2 and 5-6 of Table 2.

T-cell populations = details: partially purified; Low and Goldstein 1978; cited from earlier work
[3] = test system: TdT positive cells in the thymus; details: following steroid induced immunosuppression; Low et al. 1981; cited from earlier work
macrophages = details: Thurman et al. 1981; cited from earlier work

Substance	PNSI (percent nonspecific inhibition of macrophage migration) ([1]; 0.0005 nmoles/ml) [%]	PNSI (percent nonspecific inhibition of macrophage migration) ([1]; 0.005 nmoles/ml) [%]	PNSI (percent nonspecific inhibition of macrophage migration) ([1]; 0.05 nmoles/ml) [%]	PNSI (percent nonspecific inhibition of macrophage migration) ([1]; 0.5 nmoles/ml) [%]	TdT Specific Activity ([2]; 10 μg/injection)	TdT % Increase over HCA-saline ([2]; 10 μg/injection) [%]	Mitogens PHA-P (cpm) (Splenic lymphocytes; 10 μg/injection)	Mitogens Con A (cpm) (Splenic lymphocytes; 10 μg/injection)	TdT Specific Activity ([2]; 1 μg/injection)	TdT % Increase over HCA-saline ([2]; 1 μg/injection) [%]	Mitogens PHA-P (cpm) (Splenic lymphocytes; 1 μg/injection)	Mitogens Con A (cpm) (Splenic lymphocytes; 1 μg/injection)	Induction of TdT positive cells in T-cell populations (T-cell populations)	Reappearance of TdT positive cells in the thymus [3]	Migration of macrophages (macrophages)
IEQEKQQAGES [C10 β4, L-Isoleucyl-L-glutamyl-L-glutaminyl-L-glutamyl-L-lysyl-L-glutaminyl-L-glutaminyl-L-alanyl-glycyl-L-glutamyl-L-serine]	-5.3	10.7	18.8	21.6											
QAGESDEITAKT [C12 β3, L-Glutaminyl-L-alanyl-glycyl-L-glutamyl-L-seryl-L-aspartyl-L-glutamyl-L-isoleucyl-L-threonyl-L-alanyl-L-lysyl-L-threonine]	23.5	24.7	29.7	30.2	8.2 nmoles of dGTP incorporated pe	28	65,000 cpm	110,000 cpm							
KQAGES [C6 β4, L-Lysyl-L-glutaminyl-L-alanyl-glycyl-L-glutamyl-L-serine]	3.1	-5.1	15.2	18.3											
QEKQAGES [C8 β4, L-glutaminyl-L-glutamyl-L-lysyl-L-glutaminyl-L-alanyl-glycyl-L-glutamyl-L-serine]	5.5	27.0	25.4	24.1	7.6 nmoles of dGTP incorporated pe	19	11,000 cpm	140,000 cpm							
thymosin β4 [Natural thymosin β4, reference compound]		23.1	29.2	37.6					8.8 nmoles of dGTP incorporated pe	38	10,000 cpm	125,000 cpm	induce TdT positive cells	accelerate the reappearance of TdT positive cells in the thymus	inhibit the migration of macrophages
Synthetic thymosin β4: synthetic thymosin β4, tested beside natural thymosin β4 in the MIF assay (SDKPDMAEIEKFDKSKLKKTETQEKNPLPSKETIEQEKQAGES; Thymosin beta-4 synthetic; UniProt P62328 2-44, looked up) [reference compound]		25.0	25.9	30.3											
thymosin β3 [HCA--Thymosin β3, reference compound]									9.7 nmoles of dGTP incorporated pe	52	27,000 cpm	120,000 cpm	induce TdT positive cells	accelerate the reappearance of TdT positive cells in the thymus	inhibit the migration of macrophages
